From patent US11987588B2, “Modulators of the beta-3 adrenergic receptor useful for the treatment or prevention of heart failure and disorders related thereto” (Arena Pharmaceuticals, Inc., priority 2017, dated 2024)

The molecules below were run against Beta-3 Adrenergic Receptor (Homo sapiens (Human), UniProt P13945) (assay: Homogeneous Time-Resolved Fluorescence (HTRF) cAMP antagonist assay, IC50 determination). Settings: CHO-K1 cells stably expressing recombinant receptor, isoproterenol at EC90.
Beta-3 Adrenergic Receptor, sequence (P13945 whole entry, species assumed): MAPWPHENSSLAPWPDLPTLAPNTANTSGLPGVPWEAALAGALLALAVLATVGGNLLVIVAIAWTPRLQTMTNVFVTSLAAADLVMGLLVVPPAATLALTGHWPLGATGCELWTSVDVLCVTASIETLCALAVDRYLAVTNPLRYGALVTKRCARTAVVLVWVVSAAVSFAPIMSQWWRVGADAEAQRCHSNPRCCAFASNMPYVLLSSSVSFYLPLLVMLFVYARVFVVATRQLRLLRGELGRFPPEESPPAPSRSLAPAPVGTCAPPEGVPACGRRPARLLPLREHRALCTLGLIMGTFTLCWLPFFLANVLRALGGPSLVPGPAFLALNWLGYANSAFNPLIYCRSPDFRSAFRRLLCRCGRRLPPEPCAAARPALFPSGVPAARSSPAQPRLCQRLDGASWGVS
Assay type: cell-based
Summary of the method: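 Antagonist mode: isoproterenol at its predetermined EC90 added after compound to recombinant CHO-K1 cells in IBMX-containing PBS, 1 h, room temperature. Compounds tested as 5-fold, 10-point dilutions, top final typically 10 or 100 μM. HTRF signal converted to cAMP via standard curve, giving IC50.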
For `CC(C)(C)NS(=O)(=O)c1cccc(OC[C@@H](O)CNC2COC3(CCN(S(=O)(=O)c4ccc5ccccc5c4)CC3)C2)c1` (stereo partly drawn) [Compound 94, N-tert-butyl-3-((2S)-2-hydroxy-3-(8-(naphthalen-2-ylsulfonyl)-1-oxa-8-azaspiro[4.5]decan-3-ylamino)propoxy)benzenesulfonamide], the IC50 was 0.0598 µM.
Work on `O=S(=O)(NC(CO)CO)c1cccc(OC[C@@H](O)CNC2COC3(CCN(S(=O)(=O)c4ccc5ccccc5c4)CC3)C2)c1` (stereo partly drawn) [Compound 95, N-(1,3-dihydroxypropan-2-yl)-3-((2S)-2-hydroxy-3-(8-(naphthalen-2-ylsulfonyl)-1-oxa-8-azaspiro[4.5]decan-3-ylamino)propoxy)benzenesulfonamide] yielded an IC50 of 0.159 µM.
`C[C@H](CO)NS(=O)(=O)c1cccc(OC[C@@H](O)CNC2COC3(CCN(S(=O)(=O)c4ccc5ccccc5c4)CC3)C2)c1` (stereo partly drawn) [Compound 96, 3-((2S)-2-hydroxy-3-(8-(naphthalen-2-ylsulfonyl)-1-oxa-8-azaspiro[4.5]decan-3-ylamino)propoxy)-N—((R)-1-hydroxypropan-2-yl)benzenesulfonamide] gave an IC50 of 0.0421 µM.
`CCC(CC)CNS(=O)(=O)c1cccc(OC[C@@H](O)CNC2COC3(CCN(S(=O)(=O)c4ccc5ccccc5c4)CC3)C2)c1` (stereo partly drawn) [Compound 97, N-(2-ethylbutyl)-3-((2S)-2-hydroxy-3-(8-(naphthalen-2-ylsulfonyl)-1-oxa-8-azaspiro[4.5]decan-3-ylamino)propoxy)benzenesulfonamide] gave an IC50 of 0.127 µM.
Molecule `CC(C)CCNS(=O)(=O)c1cccc(OC[C@@H](O)CNC2COC3(CCN(S(=O)(=O)c4ccc5ccccc5c4)CC3)C2)c1` (stereo partly drawn) [Compound 98, 3-((2S)-2-hydroxy-3-(8-(naphthalen-2-ylsulfonyl)-1-oxa-8-azaspiro[4.5]decan-3-ylamino)propoxy)-N-isopentylbenzenesulfonamide] has an IC50 of 0.0711 µM.
For `O=S(=O)(NC1(CO)CC1)c1cccc(OC[C@@H](O)CNC2COC3(CCN(S(=O)(=O)c4ccc5ccccc5c4)CC3)C2)c1` (stereo partly drawn) [Compound 99, 3-((2S)-2-hydroxy-3-(8-(naphthalen-2-ylsulfonyl)-1-oxa-8-azaspiro[4.5]decan-3-ylamino)propoxy)-N-(1-(hydroxymethyl)cyclopropyl)benzenesulfonamide], the IC50 was 0.121 µM.
Work on `C[C@@H](NS(=O)(=O)c1cccc(OC[C@@H](O)CNC2COC3(CCN(S(=O)(=O)c4ccc5ccccc5c4)CC3)C2)c1)C(C)(C)C` (stereo partly drawn) [Compound 100, N—((R)-3,3-dimethylbutan-2-yl)-3-((2S)-2-hydroxy-3-(8-(naphthalen-2-ylsulfonyl)-1-oxa-8-azaspiro[4.5]decan-3-ylamino)propoxy)benzenesulfonamide] yielded an IC50 of 0.256 µM.
`CCNS(=O)(=O)c1cccc(OC[C@@H](O)CNC2COC3(CCN(S(=O)(=O)c4ccc5ccccc5c4)CC3)C2)c1` (stereo partly drawn) [Compound 101, N-ethyl-3-((2S)-2-hydroxy-3-(8-(naphthalen-2-ylsulfonyl)-1-oxa-8-azaspiro[4.5]decan-3-ylamino)propoxy)benzenesulfonamide] showed an IC50 of 0.00962 µM.
In the case of `CNS(=O)(=O)c1cccc(OC[C@@H](O)CNC2COC3(CCN(S(=O)(=O)c4cccc(-c5ccccn5)c4)CC3)C2)c1` (stereo partly drawn) [Compound 102, 3-((2S)-2-hydroxy-3-(8-(3-(pyridin-2-yl)phenylsulfonyl)-1-oxa-8-azaspiro[4.5]decan-3-ylamino)propoxy)-N-methylbenzenesulfonamide], the IC50 is reported as 0.026 µM.
Molecule `CNS(=O)(=O)c1cccc(OC[C@@H](O)CNC2COC3(CCN(S(=O)(=O)c4cccc(-c5ccc(N)nc5)c4)CC3)C2)c1` (stereo partly drawn) [Compound 103, 3-((2S)-3-(8-(3-(6-aminopyridin-3-yl)phenylsulfonyl)-1-oxa-8-azaspiro[4.5]decan-3-ylamino)-2-hydroxypropoxy)-N-methylbenzenesulfonamide] has an IC50 of 0.0105 µM.
`CNS(=O)(=O)c1cccc(OC[C@@H](O)CNC2COC3(CCN(S(=O)(=O)c4cccc(-c5cncnc5)c4)CC3)C2)c1` (stereo partly drawn) [Compound 104, 3-((2S)-2-hydroxy-3-(8-(3-(pyrimidin-5-yl)phenylsulfonyl)-1-oxa-8-azaspiro[4.5]decan-3-ylamino)propoxy)-N-methylbenzenesulfonamide] was tested, and the IC50 was 0.0173 µM.
In the case of `CNS(=O)(=O)c1cccc(OC[C@@H](O)CNC2COC3(CCN(S(=O)(=O)c4cccc(-c5cccc(CN(C)C)c5)c4)CC3)C2)c1` (stereo partly drawn) [Compound 105, 3-((2S)-3-(8-(3′-((dimethylamino)methyl)biphenyl-3-ylsulfonyl)-1-oxa-8-azaspiro[4.5]decan-3-ylamino)-2-hydroxypropoxy)-N-methylbenzenesulfonamide], the IC50 is reported as 0.0312 µM.
For `CNS(=O)(=O)c1cccc(OC[C@@H](O)CNC2COC3(CCN(S(=O)(=O)c4cccc(-c5ccncc5)c4)CC3)C2)c1` (stereo partly drawn) [Compound 106, 3-((2S)-2-hydroxy-3-(8-(3-(pyridin-4-yl)phenylsulfonyl)-1-oxa-8-azaspiro[4.5]decan-3-ylamino)propoxy)-N-methylbenzenesulfonamide], the IC50 was 0.0133 µM.
Work on `CNS(=O)(=O)c1cccc(OC[C@@H](O)CNC2COC3(CCN(S(=O)(=O)c4cccc(-c5ccnc(C)c5)c4)CC3)C2)c1` (stereo partly drawn) [Compound 107, 3-((2S)-2-hydroxy-3-(8-(3-(2-methylpyridin-4-yl)phenylsulfonyl)-1-oxa-8-azaspiro[4.5]decan-3-ylamino)propoxy)-N-methylbenzenesulfonamide] yielded an IC50 of 0.0109 µM.
`CNS(=O)(=O)c1cccc(OC[C@@H](O)CNC2COC3(CCN(S(=O)(=O)c4cccc(-c5cnc(OC)nc5)c4)CC3)C2)c1` (stereo partly drawn) [Compound 108, 3-((2S)-2-hydroxy-3-(8-(3-(2-methoxypyrimidin-5-yl)phenylsulfonyl)-1-oxa-8-azaspiro[4.5]decan-3-ylamino)propoxy)-N-methylbenzenesulfonamide] showed an IC50 of 0.0134 µM.
`CNS(=O)(=O)c1cccc(OC[C@@H](O)CNC2COC3(CCN(S(=O)(=O)c4cccc(-c5cscc5C)c4)CC3)C2)c1` (stereo partly drawn) [Compound 109, 3-((2S)-2-hydroxy-3-(8-(3-(4-methylthiophen-3-yl)phenylsulfonyl)-1-oxa-8-azaspiro[4.5]decan-3-ylamino)propoxy)-N-methylbenzenesulfonamide] gave an IC50 of 0.0137 µM.
`CNS(=O)(=O)c1cccc(OC[C@@H](O)CNC2COC3(CCN(S(=O)(=O)c4cccc(-c5cncc(C)c5)c4)CC3)C2)c1` (stereo partly drawn) [Compound 110, 3-((2S)-2-hydroxy-3-(8-(3-(5-methylpyridin-3-yl)phenylsulfonyl)-1-oxa-8-azaspiro[4.5]decan-3-ylamino)propoxy)-N-methylbenzenesulfonamide] gave an IC50 of 0.019 µM.
Molecule `CNS(=O)(=O)c1cccc(OC[C@@H](O)CNC2COC3(CCN(S(=O)(=O)c4cccc(-c5ccc(C)nc5)c4)CC3)C2)c1` (stereo partly drawn) [Compound 111, 3-((2S)-2-hydroxy-3-(8-(3-(6-methylpyridin-3-yl)phenylsulfonyl)-1-oxa-8-azaspiro[4.5]decan-3-ylamino)propoxy)-N-methylbenzenesulfonamide] has an IC50 of 0.0263 µM.
With `CNS(=O)(=O)c1cccc(OC[C@@H](O)CNC2COC3(CCN(S(=O)(=O)c4cccc(-c5cccc(C(=O)O)c5)c4)CC3)C2)c1` (stereo partly drawn) [Compound 112, 3′-(3-((S)-2-hydroxy-3-(3-(N-methylsulfamoyl)phenoxy)propylamino)-1-oxa-8-azaspiro[4.5]decan-8-ylsulfonyl)biphenyl-3-carboxylic acid] the IC50 was 0.239 µM.
`CNS(=O)(=O)c1cccc(OC[C@@H](O)CNC2COC3(CCN(S(=O)(=O)c4cccc(-c5cn(C)c(=O)n(C)c5=O)c4)CC3)C2)c1` (stereo partly drawn) [Compound 113, 3-((2S)-3-(8-(3-(1,3-dimethyl-2,4-dioxo-1,2,3,4-tetrahydropyrimidin-5-yl)phenylsulfonyl)-1-oxa-8-azaspiro[4.5]decan-3-ylamino)-2-hydroxypropoxy)-N-methylbenzenesulfonamide] showed an IC50 of 0.213 µM.
`CNS(=O)(=O)c1cccc(OC[C@@H](O)CNC2COC3(CCN(S(=O)(=O)c4cccc(-c5ccc(OCC#N)cc5)c4)CC3)C2)c1` (stereo partly drawn) [Compound 114, 3-((2S)-3-(8-(4′-(cyanomethoxy)biphenyl-3-ylsulfonyl)-1-oxa-8-azaspiro[4.5]decan-3-ylamino)-2-hydroxypropoxy)-N-methylbenzenesulfonamide] was tested, and the IC50 was 0.0103 µM.
`CNS(=O)(=O)c1cccc(OC[C@@H](O)CNC2COC3(CCN(S(=O)(=O)c4cccc(-c5cccc(S(=O)(=O)N(C)C)c5)c4)CC3)C2)c1` (stereo partly drawn) [Compound 115, 3′-(3-((S)-2-hydroxy-3-(3-(N-methylsulfamoyl)phenoxy)propylamino)-1-oxa-8-azaspiro[4.5]decan-8-ylsulfonyl)-N,N-dimethylbiphenyl-3-sulfonamide] gave an IC50 of 0.0335 µM.
In the case of `CNS(=O)(=O)c1cccc(OC[C@@H](O)CNC2COC3(CCN(S(=O)(=O)c4cccc(-c5sccc5C)c4)CC3)C2)c1` (stereo partly drawn) [Compound 116, 3-((2S)-2-hydroxy-3-(8-(3-(3-methylthiophen-2-yl)phenylsulfonyl)-1-oxa-8-azaspiro[4.5]decan-3-ylamino)propoxy)-N-methylbenzenesulfonamide], the IC50 is reported as 0.0235 µM.
Molecule `CNS(=O)(=O)c1cccc(OC[C@@H](O)CNC2COC3(CCN(S(=O)(=O)c4cccc(-c5ccc(CC#N)cc5)c4)CC3)C2)c1` (stereo partly drawn) [Compound 117, 3-((2S)-3-(8-(4′-(cyanomethyl)biphenyl-3-ylsulfonyl)-1-oxa-8-azaspiro[4.5]decan-3-ylamino)-2-hydroxypropoxy)-N-methylbenzenesulfonamide] has an IC50 of 0.0145 µM.
With `CNS(=O)(=O)c1cccc(OC[C@@H](O)CNC2COC3(CCN(S(=O)(=O)c4cccc(-c5cccc(CO)c5)c4)CC3)C2)c1` (stereo partly drawn) [Compound 118, 3-((2S)-2-hydroxy-3-(8-(3′-(hydroxymethyl)biphenyl-3-ylsulfonyl)-1-oxa-8-azaspiro[4.5]decan-3-ylamino)propoxy)-N-methylbenzenesulfonamide] the IC50 was 0.0241 µM.
`CNS(=O)(=O)c1cccc(OC[C@@H](O)CNC2COC3(CCN(S(=O)(=O)c4cn(C)c(C)n4)CC3)C2)c1` (stereo partly drawn) [Compound 119, 3-((2S)-3-(8-(1,2-dimethyl-1H-imidazol-4-ylsulfonyl)-1-oxa-8-azaspiro[4.5]decan-3-ylamino)-2-hydroxypropoxy)-N-methylbenzenesulfonamide] gave an IC50 of 0.203 µM.
